Measurements reported in PubChem BioAssay AID624419 (Sanford-Burnham Center for Chemical Genomics, 2012).

Test system: mouse plasma stability, percent remaining
Assay: second set, compound stability in murine plasma, biochemical ADME (AID 624419)
Conditions: at 1 µM

SMILES	plasma stability [%]
CCN1CCN(c2nc3ccccc3nc2C(C#N)C(=O)OC2CCCCC2)CC1 (stereo not given)	15.5
COc1cccc(-c2nc(-c3ccc(NC(=O)Cc4ccccc4OC)cc3)no2)c1	100
CS(=O)(=O)c1ccc(C(=O)OCC(=O)NC23CC4CC(CC(C4)C2)C3)cc1[N+](=O)[O-]	91.4
CC1CCCN(C(C(=O)Nc2ccc3c(c2)OCCO3)c2ccccc2)C1 (stereo not given)	100
c1ccc(-c2nnc(N3CCOCC3)nc2-c2ccccc2)cc1	100
Cc1cc(-c2nnc3n2CCCCC3)c(C)n1-c1ccccc1	91.3
N#Cc1ccccc1CSc1nc2ncc(Br)cc2[nH]1	100
CC(=O)c1ccc(N2CCN(S(=O)(=O)c3ccc4c(c3)CC(=O)N4)CC2)cc1	100
CC[C@H]1CN2CCc3cc(OC)c(OC)cc3[C@@H]2C[C@@H]1C[C@H]1NCCc2cc(OC)c(OC)cc21	100
CC(C)C(=O)NC(c1ccco1)c1ccc2cccnc2c1O (stereo not given)	95.2
CCCN1CNc2c(c(=O)[nH]c(=S)n2CCc2ccc(OC)c(OC)c2)C1	99.5
Cc1cccc(-n2cnc3cc(C(=O)N4CCCCC4)ccc32)c1	87.1
Cc1ccc(C)c(OCCn2cc(C(=O)O)c3ccccc32)c1	94.8
COc1ccc(C2c3c(ncn(CCN4CCOCC4)c3=N)Oc3ccc4ccccc4c32)cc1OC (stereo not given)	100
COc1ccc(S(=O)(=O)N2CCN(S(=O)(=O)c3ccc4c(c3)OCCO4)CC2)cc1	100
C=CCn1c(SCC(=O)c2ccc(O)c(O)c2)nnc1-c1ccccc1OC	73.5
O=C(O)c1ccccc1OCc1ccccc1Br	100
COc1nc(-c2ccccc2)nnc1-c1ccccc1	100
O=C(O)CCC(NS(=O)(=O)c1ccc(-c2ccccc2)cc1)C(=O)O (stereo not given)	88.8
Brc1cc2c(cc1C1Nc3ccccc3C3C=CCC31)OCO2 (stereo not given)	100

SMILES	plasma stability [%]
COC(=O)c1ccccc1NC(=O)c1ccc(F)cc1	17
COc1ccc(CSc2nc(C)cc(=O)[nH]2)cc1	100
C/C=C/Cn1c(SCCCc2ccccc2)nc2c1c(=O)[nH]c(=O)n2C	100
O=C1CCCC2=C1C1(CCCC1)N=C(Nc1nc3ccccc3o1)N2	100
O=c1[nH]c(SCc2ccc(Cl)cc2)nc2c1CCC2	100
N#C/C(=C\c1ccc([N+](=O)[O-])o1)c1nc2ccccc2[nH]1	9.6
COc1ccc(OC)c(-c2nnc3n2N=C(c2ccc(OC)c(OC)c2)CS3)c1	100
Cc1ccc(S(=O)(=O)C(c2ccccc2)c2c(C)noc2C)cc1 (stereo not given)	97.8
Cn1cnc([N+](=O)[O-])c1Sc1ncnc2nc[nH]c12	84.1
Cc1ccc(C(=O)n2c3ccccc3c3ccccc32)cc1	100
Cc1ccnc(NC(=O)CCCOc2cc(=O)n(C)c3ccccc23)c1	0.15
O=C(O)c1ccc(N2C(=O)/C(=C/c3ccc(-c4ccc([N+](=O)[O-])cc4)o3)C=C2c2ccccc2)cc1	99.7
COc1ccc(CNCc2cccc3ccccc23)cc1	80.5
O=C(COc1ccccc1Br)NCCc1nc2ccccc2[nH]1	100
O=C(c1ccccn1)N(Cc1cccs1)C1(C(=O)NC2CCCCC2)CCCCC1	100
Brc1ccc2c(c1)CN1CCCC1=N2	100
COc1cc(NC(=O)c2cc(C3CC3)on2)c(OC)cc1Cl	42.4
COc1ccccc1N(/N=C1\Sc2ccccc2C1=O)C(C)=O	4.35
CN(C)c1oc(-c2ccc(OCc3ccc(Cl)cc3)cc2)nc1C#N	91.4

Continued, values first:

plasma stability [%]	SMILES
83.4	Cc1ccc(C)c(NS(=O)(=O)c2cc(C(=O)Nc3ccccc3-c3ccccc3)ccc2Cl)c1
100	O=c1[nH]c2c(s1)C(c1cccnc1)C1C3CCC(C3)C1S2 (stereo not given)
100	COc1ccc(OC)c(S(=O)(=O)Nc2cnc3ccccc3c2)c1
98	Cc1cc(C(=O)CN2C(=O)CCC2=O)c(C)n1Cc1ccccc1
81.9	Cn1nnnc1Sc1ncnc2scc(-c3ccccc3)c12
73.3	Cc1ccc(NC(=O)CCC(=O)N/N=C/c2ccc([N+](=O)[O-])o2)cc1C
100	Cc1ccc(S(=O)(=O)n2c(N)nc3ccccc32)cc1
100	c1ccc(CC2CCN(c3ncnc4sccc34)CC2)cc1
6.46	CN(C)C1=C(Cl)C(=O)N(c2ccc(Cl)c(Cl)c2)C1=O
100	CN(C)c1nc(N)nc(CSc2nnnn2-c2cccc3ccccc23)n1
73.7	COc1ccc(S(=O)(=O)n2nc(OC(=O)c3ccccc3)cc2N)cc1
84.8	CSc1nc(-c2ccc(C)cc2)nc(C(Cl)Cl)n1
0.14	CCCC(=O)Nc1cccc(NC(=O)c2ccccc2Br)c1
84	CCCc1cc(C(=O)N(C2CCCCC2)C2CCCCC2)no1
82.8	NC(=O)C1CCN(c2nc(-c3ccc(Br)cc3)cs2)CC1
100	CCc1oc2ccccc2c1C(=O)c1cc(Br)c(O)c(Br)c1
100	Cc1cc(C)n(-c2nc(NCCCO)c3c4c(sc3n2)CCCC4)n1
92.1	CCOc1ccc(-c2nc(-c3ccncc3)no2)cc1OCC
93.6	Cc1cc(C)nc(-n2nc(C)c(Sc3ccc(F)cc3)c2N)n1
100	Cc1nc(SCc2nc3ccccc3[nH]2)c2oc3ccccc3c2n1
100	Cc1ccc(NS(=O)(=O)c2ccc3c(c2)CCC(=O)N3)cc1C
52.7	O=C1C2CC=CCC2C(=O)N1c1n[nH]c(-c2ccccc2)n1 (stereo not given)
100	O=S1(=O)Nc2c(ccc3cccnc23)-c2ccccc21

plasma stability [%]	SMILES
91.6	COc1ccc(Sc2ccc(NC(=O)c3ccccc3Cl)cc2C#N)cc1
100	O=C(CCNS(=O)(=O)c1cccc2nsnc12)N1CCN(c2ccccn2)CC1
100	CCCOc1ccc(-c2nc(OC)c3ccccc3n2)cc1
56.7	CCCc1nc2c(=O)n(C)c(=O)nc-2n(C)n1
100	CCCN(CCC)CCNC(=O)C1CCN(Cc2nc(-c3ccc(Cl)cc3)oc2C)CC1
97.2	O=C1NCCCc2c1oc1ccc(O)cc21
97.6	CCc1nnc(NC(=O)c2ccc(NS(=O)(=O)c3ccccc3)cc2)s1
100	O=C(O)c1cccnc1SCCc1ccccc1
100	Cc1ccc(S(=O)(=O)NCc2ccc(C(=O)NCCN(Cc3ccccc3)C(C)C)cc2)cc1
15.3	COc1ccc(N(C(=O)CCl)C(C(=O)NCCc2ccccc2)c2cccs2)cc1Cl (stereo not given)
89.8	Cc1cc2c(s1)c1cnn(Cc3ccccc3F)c(=O)c1n2C
0.19	CCOC(=O)C(C)Oc1cccc2c(=O)n(CC(=O)Nc3ccc4c(c3)OCCO4)ccc12 (stereo not given)
100	Cc1ccccc1N1CCN(c2ncnc3c2cnn3Cc2ccc(Cl)cc2)CC1
100	O=S(=O)(NC1CCCCC1N1CCOCC1)c1ccc(Cl)cc1 (stereo not given)
96.7	CCCn1ncc(CN2CCCC(C(=O)c3cccc(OC(C)C)c3)C2)c1C (stereo not given)
100	O=C(CSc1cccc2cccnc12)N1CCCC1
100	Cc1ccc(-n2c(N)c(C#N)c(-c3ccccc3)c(C#N)c2=O)cc1
73.7	CCOc1ccc(NC(=S)N2CCC(C(O)(c3ccccc3)c3ccccc3)CC2)cc1
96.4	c1ccc2c(Nc3nnc(-c4ccncc4)s3)cccc2c1
2.35	O=C(COC(=O)C12CC3CC(CC(C3)C1)C2)NCc1ccco1
100	O=[N+]([O-])c1ccc(CN2CCOCCOCCN(Cc3ccc([N+](=O)[O-])cc3)CCOCC2)cc1
100	Cc1ccc(N2CCN(S(=O)(=O)N3CCCCC3)CC2)c(C)c1
100	COc1ccc(C2CC(c3ccccc3)=NN2c2ccc(S(N)(=O)=O)cc2)cc1 (stereo not given)
